The source of these data is patent publication US9220746B2, “Compounds and methods for treating bone disorders and controlling weight” (The University of North Carolina at Chapel Hill, priority 2009, dated 2015).

One assay relates to 3T3L1. Description: Fat cell differentiation of 3T3L1 cells, oil red O staining. The assay is classed as cell-based. The method, then: In some assays, fat cell data were obtained by using the cell line 3T3L1, which is used to study fat cell differentiation. These cells are grown as fat cell precursors. These cells are maintained in Hams F12 with fetal calf serum and 15 mM glutamine. To stimulate them to enter the fat cell differentiation pathway, isomethylbutylxanine, dexamethasone and insulin are added using concentrations of 0.5 mM IBMX 16.7 nM insulin and 0.1 uM dexamethasone. In some cases 100 ng/ml IGF-I was added instead of insulin. Three days after the addition, differentiation into adipocytes is apparent and is detected by oil red O staining.
To determine the effects of the peptide of SEQ ID NO:1, it was added at concentrations of 20 ng/ml, 200 ng/ml and 2 ug/ml. A detectable inhibition of adipocyte differentiation, as determined by a decrease in the number of oil red O positive cells, was detected using 20 ng/ml of peptide. The response was maximal at 200 ng/ml and not increased further by adding 2 mcg/ml.
For oil red O staining, a stock solution of […] isoproponol is prepared. 60 ml of solution is mixed with 40 ml of water and allowed to sit at room temperature for an hour and then filtered. The media is aspirated from the adipocyte cultures and cells are fixed in 1% formaldehyde. Formaldehyde is aspirated and the oil red O solution is added in an amount necessary to cover the cells, which are then left at room temperature for one hour. The stain is then removed and the plates are washed with distilled water and dried. Typically 60-70% of the cells stain positive after 3 days.

In another assay the test system is adherent macrophages. Description: Osteoclast differentiation, tartrate resistant acid phosphatase staining. It is filed as cell-based, mouse. The following applies: for osteoclast differentiation: macrophages of IGFBP-2 gene deleted Balb/c mice, mCSF, RANK ligand, TRAP stain day 7. The text has this:
The method for osteoclast differentiation is as follows: Balb/c mice in which the IGFBP-2 gene had been deleted (see V. DeMambro et al, Endocrinology, 149(5): 2051-2061 (2007)) were anesthetized and sacrificed using cervical dislocation. The femurs from each mouse were dissected free of soft tissue and the bone marrow aspirated by needle puncture. Cells were removed sterile and resuspended in DMEM with 10% fetal calf serum. The cells were centrifuged at 700×g and the cell pellet resuspended in medium and plated in 24 well plates at a concentration of 5000 cells/cm^2. The plates that are used are low adherence plates that have no additives to facilitate cell adherence. Under these conditions macrophages will adhere while other cells will not. The media is supplemented with mCSF 20 ng/ml. After 3 days the cells are removed from the plate and the adherent macrophages are exposed to fresh media containing 10% FBS and mCSF. This is repeated again after 3 days and then after an additional 3 days cells are trypsinized and replated in fresh plates at 6×10^4 cells/cm. At this time RANK ligand, 50 ng/ml, is added, although in some experiments concentrations as low as 10 ng/ml were utilized. Medium is changed at 3 and 6 days and on day 7 cells are stained for tartrate resistant acid phosphatase, a marker of osteoclast differentiation. IGFBP-2 was added at concentrations between 50 ng/ml and 500 mcg/ml. The peptide was added at 20 or 200 ng/ml.
For tartrate resistant acid phosphatase staining, a 1% solution is prepared and incubated with the cells for 30 min at room temperature. Cultures are then washed and cell number determined by manual counting.

Another assay has as its system PTEN. Description: Western blot analysis of PTEN expression. The following applies: for PTEN concentrations: aortic smooth muscle and bone cells from IGFBP-2 gene deleted mice, exogenous addition. It is filed as cell-based, mouse. The method, then:
FIG. 5. The heparin-binding domain of IGFBP2 suppresses PTEN expression. a and b, Igfbp2^−/− calvarial osteoblasts (COBs) were isolated, and treated with PBS, IGFBP-2 or pegylated heparin-binding domain peptide (PEG-HBD) in MEMα containing 0.1% BSA overnight. Whole cell lysate was collected and expression of PTEN and α-actin was analyzed by Western blot analysis. Expression levels of PTEN were quantified by normalizing to the expression levels of α-actin. c and d. COBs pre-incubated with PBS, IGFBP-2 or PEG-HBD overnight were treated with IGF-I (100 ng/ml) for 15 minutes. Whole cell lysate was collected and expression of pSer473-Akt and Akt was analyzed by Western blot analysis. Expression levels of pSer473-Akt were quantified by normalizing to the expression levels of Akt. Figures shown represent at least 3 independent experiments. Values are expressed as the mean±SEM (n=3-4). Statistical difference was analyzed by Student's t-test. *; <0.001, **; <0.01, ^†; <0.05.
FIG. 9. […] Igfbp2^+/+ calvarial osteoblasts were treated with PBS, control peptide, or heparin-binding domain peptide (HBD-peptide) overnight, and whole cell lysate was collected. PTEN expression was analyzed using western blot analysis (a), and quantitative analysis was performed (b). Values were expressed as the mean±SEM (n=3). Statistical significance was analyzed by ANOVA followed by Bonferroni post-hoc test. ^a; p<0.01 vs. PBS, ^b; p<0.01 vs. control peptide.
To prepare whole cell lysates, cells were solubilized in RIPA buffer^55. For cytosolic fraction, cells were solubilized with hypotonic buffer containing protease and phosphatase inhibitors (10 mM Tris, 0.2 mM MgCl2, pH 7.4) and kept on ice for 10 min. Cell lysates were mixed with sucrose buffer (final concentration; 25 mM Sucrose, 0.1 mM EDTA) and centrifuged at 20,000×g for 1 hour. Supernatant was used as cytosolic fraction. To prepare the membrane fraction, cells were solubilized with PBS containing protease and phosphatase inhibitors. The lysates were frozen at −80° C. for 1 h and thawed at room temperature. After three cycles, they were centrifuged at 13,000×g for 25 min. The pellet was suspended with membrane protein isolation buffer (20 mM Tris-HCl; 150 mM NaCl; 1 mM EDTA; 1 mM EGTA; and 1% Triton X-100, pH 7.5) containing protease and phosphatase inhibitors. Protein concentration was assessed by BCA protein assay kit (Thermo Scientific) and equal amounts of sample were separated by SDS-PAGE and transferred electrophoretically to nitrocellulose membranes. Membranes were blocked in 5% BSA in Tris-buffered saline. […]
(In western blotting, separated proteins are transferred to a membrane and probed.)

For the molecule “KHHLGLEEPKKLR (IGFBP-2 heparin binding domain-containing peptide sequence) [peptide of SEQ ID NO:1]”, in the assay on 3T3L1 (3T3L1, added at 20 ng/ml, 200 ng/ml and 2 ug/ml), the “concentration at which inhibition of adipocyte differentiation (decrease in oil red O positive cells) was detectable” value came to 20 ng/mL. Besides, in the assay with 3T3L1 (3T3L1, not increased further by 2 mcg/ml), the “concentration at which the response (inhibition of adipocyte differentiation) was maximal” value was found to be 200 ng/mL. Moreover, the “oil red O positive cells at maximum effect of the peptide” value in the assay on 3T3L1 (typically 60-70% of the cells stain positive after 3 days) is on record as less than 20%. In the assay with adherent macrophages, the “serum concentration at which osteoclast differentiation was still detected in the presence of the peptide” value was 0.5% and the osteoclast differentiation result is given as “would not differentiate into osteoclasts without addition”. Further, the PTEN concentrations result in the assay on PTEN is recorded as “could suppress PTEN concentrations”.

B1: IGFBP-2: Insulin-like growth factor binding protein-2, 36,000 dalton protein, purified from cellular conditioned medium (protein, UniProt P18065 36-325, looked up)
Insulin-like growth …: AEVLFRCPPCTPERLAACGPPPVAPPAAVAAVAGGARMPCAELVREPGCGCCSVCARLEGEACGVYTPRCGQGLRCYPHPGSELPLQALVMGEGTCEKRRDAEYGASPEQVADNGDDHSEGGLVENHVDSTMNMLGGGGSAGRKPLKSGMKELAVFREKVTEQHRQMGKGGKHHLGLEEPKKLRPPPARTPCQQELDQVLERISTMRLPDERGPLEHLYSLHIPNCDKHGLYNLKQCKMSLNGQRGECWCVNPNTGKLIQGAPTIRGDPECHLFYNEQQEARGVHTQRMQ
Turning to B1, in the assay on 3T3L1 (3T3L1, tested in parallel), the “concentrations found to inhibit adipocyte differentiation” value lay within 50 to 500 ng/mL. Further, the osteoclast differentiation result in the assay with adherent macrophages is “would not differentiate into osteoclasts without addition”. The PTEN concentrations entry in the assay on PTEN is on record as “could suppress PTEN concentrations”. In the assay on PTEN (primary calvarial osteoblasts, overnight treatment), the PTEN expression entry is recorded as “markedly suppressed PTEN expression”.
